The assay concerns Botrytis cinerea. Nature of the assay: M1 Activity against the grey mold Botrytis cinerea in the microtiterplate test (Botrci). The assay is classed as cell-based. As to conditions: 31 ppm, 405 nm, 7 days after inoculation; compound-free control 100%.

Regarding `OC(Cn1cncn1)(c1ccc(-c2ccccc2)cc1Cl)C1CC1` (stereo not shown) [Compound I-1], the “growth (relative growth in % of the pathogen)” value amounted to 0%. Under `CC(C)(C)C(O)(Cn1cncn1)c1ccc(-c2ccccc2)cc1Cl` (stereo not shown) [Compound I-7] stands 0%; under `CC(O)(Cn1cncn1)c1ccc(-c2ccccc2)cc1Cl` (stereo not shown) [Compound I-8], 0%; under `C=CCCC(O)(Cn1cncn1)c1ccc(-c2ccccc2)cc1Cl` (stereo not shown) [Compound I-9], 0%. The value for `CC#CC(O)(Cn1cncn1)c1ccc(-c2ccccc2)cc1Cl` (stereo not shown) [Compound I-10] was 0%; that for `CCC(O)(Cn1cncn1)c1ccc(-c2ccccc2)cc1Cl` (stereo not shown) [Compound I-13] was 0%; that for `CC(F)(F)C(O)(Cn1cncn1)c1ccc(-c2ccccc2)cc1Cl` (stereo not shown) [Compound I-14] was 0%.
